# Where two headings read alike, the source gives them in different places.
# What was measured:
# [1] = biological target: T1, human GLP-1 receptor (hGLP-1R) (Homo sapiens, UniProt P43220); assay: [125I]-GLP-1 binding, SPA with membranes of HEK293 cells expressing hGLP-1R
# T1 construct: expressed in transfected cells; crude membranes
# hGLP-1R = hGLP-1R (Homo sapiens, UniProt P43220); assay: Functional cAMP formation (HTRF) in HEK-293 clonal cells expressing hGLP-1R, 0.1% bovine casein, without or with 1.0% human serum albumin; assay type: cell-based; set-up: expressed in transfected cells; conditions: for EC50: geometric mean
# Procedure, shortened: (§1)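 Readings of the HTRF 665/620 nm ratio, which falls as cAMP rises, were converted to nM cAMP using a standard curve after 30 min peptide exposure at 37° C.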
# hGIPR = biological target: T2, hGIPR (Homo sapiens, UniProt P48546); assay: Functional cAMP formation (HTRF) in HEK-293 clonal cells expressing hGIPR, 0.1% bovine casein, without or with 1.0% human serum albumin; assay type: cell-based
# T2 construct: expressed in transfected cells
# T2 sequence (P48546 22-466): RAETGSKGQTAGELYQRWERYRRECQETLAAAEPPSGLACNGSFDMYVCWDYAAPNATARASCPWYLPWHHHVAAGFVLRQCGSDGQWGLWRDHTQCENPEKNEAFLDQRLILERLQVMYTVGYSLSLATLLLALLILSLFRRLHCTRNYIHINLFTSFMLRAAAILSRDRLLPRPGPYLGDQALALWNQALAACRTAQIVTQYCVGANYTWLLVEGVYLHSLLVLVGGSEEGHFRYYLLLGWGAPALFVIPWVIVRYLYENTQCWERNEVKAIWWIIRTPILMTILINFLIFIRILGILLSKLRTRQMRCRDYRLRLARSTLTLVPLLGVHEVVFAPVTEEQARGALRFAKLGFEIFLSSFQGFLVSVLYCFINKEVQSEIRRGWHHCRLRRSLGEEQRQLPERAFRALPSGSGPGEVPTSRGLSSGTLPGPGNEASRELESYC
# Procedure, shortened: as §1
# hGCGR = biological target: T3, hGCGR (Homo sapiens, UniProt P47871); assay: Functional cAMP formation (HTRF) in HEK-293 clonal cells expressing hGCGR, 0.1% bovine casein, without or with 1.0% human serum albumin; assay type: cell-based
# T3 construct: expressed in transfected cells
# Procedure, shortened: as §1
# [2] = human GLP-1R, geometric mean (SEM, n), read-out: Binding Affinity Ki, nM (SEM, n) hGLP-1R
# [3] = 0.1% bovine casein and 1.0% human serum albumin, 37° C., read-out: hGLP-1R EC50, nM (SEM, n)
# [4] = 0.1% bovine casein and 1.0% human serum albumin, 37° C., geometric mean, read-out: hGIPR EC50, nM (SEM, n)
# [5] = HEK293, 0.1% bovine casein and 1.0% human serum albumin, 37° C., percent of maximal response to GIP(1-42)NH2, read-out: hGIPR Emax, % ± SEM
# [6] = 0.1% bovine casein and 1.0% human serum albumin, 37° C., geometric mean, read-out: hGCGR EC50, nM (SEM, n)
# [7] = cAMP, incubated at 37° C., 0.1% bovine casein (no human serum albumin), geometric mean, read-out: hGCGR EC50, nM (SEM, n)
# T3 sequence (P47871 26-477): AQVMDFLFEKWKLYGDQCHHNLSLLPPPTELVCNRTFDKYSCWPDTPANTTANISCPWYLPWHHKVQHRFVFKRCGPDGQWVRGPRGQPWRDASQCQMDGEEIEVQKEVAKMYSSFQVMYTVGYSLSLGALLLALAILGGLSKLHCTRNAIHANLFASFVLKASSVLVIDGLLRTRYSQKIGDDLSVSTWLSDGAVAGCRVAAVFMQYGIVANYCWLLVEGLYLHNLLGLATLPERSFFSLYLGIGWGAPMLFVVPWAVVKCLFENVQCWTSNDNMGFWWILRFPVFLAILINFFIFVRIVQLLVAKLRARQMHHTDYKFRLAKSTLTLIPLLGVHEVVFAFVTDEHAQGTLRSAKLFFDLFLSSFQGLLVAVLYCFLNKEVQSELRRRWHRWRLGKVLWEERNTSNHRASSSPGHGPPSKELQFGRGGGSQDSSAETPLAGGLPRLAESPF
# T1 sequence (P43220 24-463): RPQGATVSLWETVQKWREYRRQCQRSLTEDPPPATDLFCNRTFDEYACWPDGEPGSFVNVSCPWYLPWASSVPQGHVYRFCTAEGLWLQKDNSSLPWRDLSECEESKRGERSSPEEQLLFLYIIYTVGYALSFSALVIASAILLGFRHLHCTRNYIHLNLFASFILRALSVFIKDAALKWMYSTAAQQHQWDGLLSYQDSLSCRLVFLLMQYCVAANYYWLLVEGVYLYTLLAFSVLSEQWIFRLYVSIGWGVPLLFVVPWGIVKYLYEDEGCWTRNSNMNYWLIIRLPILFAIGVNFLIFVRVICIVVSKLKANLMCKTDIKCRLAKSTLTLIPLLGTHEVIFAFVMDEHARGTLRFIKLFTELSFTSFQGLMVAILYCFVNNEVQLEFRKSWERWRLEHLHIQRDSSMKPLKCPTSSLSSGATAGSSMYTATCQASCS
# hGLP-1R, sequence (P43220 24-463): as above
smiles,measurement,setting,value
CC[C@H](C)[C@H](NC(=O)[C@H](CC(C)C)NC(=O)[C@](C)(Cc1ccc(O)cc1)NC(=O)[C@@H](CCC(=O)O)NC(=O)[C@@H](NC(=O)[C@H](Cc1ccccc1)NC(=O)[C@H](CCC(=O)O)NC(=O)C(C)(C)NC(=O)[C@H](CCC(N)=O)NC(=O)[C@H](C)NC(=O)[C@H](CCCCNC(=O)COCCOCCNC(=O)CC[C@H](NC(=O)CCCCCCCCCOc1ccc(C(=O)O)cc1)C(=O)O)NC(=O)[C@H](CCCN)NC(=O)[C@H](CC(=O)O)NC(=O)[C@H](CC(C)C)NC(=O)[C@](C)(CC(C)C)NC(=O)[C@@H](NC(=O)C(C)(C)NC(=O)[C@H](Cc1ccncc1)NC(=O)[C@H](CC(=O)O)NC(=O)[C@H](CO)NC(=O)[C@@H](NC(=O)[C@](C)(Cc1ccccc1F)NC(=O)[C@@H](NC(=O)CNC(=O)[C@H](CCC(=O)O)NC(=O)C(C)(C)NC(=O)[C@@H](N)Cc1ccc(O)cc1)[C@@H](C)O)[C@@H](C)O)[C@@H](C)CC)[C@@H](C)CC)C(=O)N[C@@H](CCCCNC(=O)COCCOCCNC(=O)CC[C@H](NC(=O)CCCCCCCCCOc1ccc(C(=O)O)cc1)C(=O)O)C(=O)NCC(=O)NCC(=O)N1CCC[C@H]1C(=O)N[C@@H](CO)C(=O)N[C@@H](CO)C(=O)NCC(=O)N[C@@H](C)C(=O)N1CCC[C@H]1C(=O)N1CCC[C@H]1C(=O)N1CCC[C@H]1C(=O)N[C@@H](CO)C(N)=O [Example 361],Ki,[1],1.22 nM
same,Emax,"hGLP-1R; HEK293, read-out: hGLP-1R Emax, % ± SEM, cAMP, 37° C., 0.1% bovine casein and 1.0% human serum albumin, percent of maximal response to GLP-1(7-36)NH2",98.8%
same,Emax,"hGLP-1R; HEK293, read-out: hGLP-1R Emax, % ± SEM, cAMP, 37° C., 0.1% bovine casein, percent of maximal response to GLP-1(7-36)NH2, arithmetic mean",98.2%
same,EC50,"hGLP-1R; hGLP-1R EC50, nM (SEM, n), cAMP, 37° C., 0.1% bovine casein (no human serum albumin)",0.58 nM
same,Emax,"hGIPR; HEK293, read-out: hGIPR Emax, % ± SEM, cAMP, 37° C., 0.1% bovine casein and 1.0% human serum albumin, percent of maximal response to GIP(1-42)NH2",88.8%
same,EC50,"hGIPR; hGIPR EC50, nM (SEM, n), cAMP, 37° C., 0.1% bovine casein (no human serum albumin), geometric mean",0.0121 nM
same,EC50,"hGIPR; hGIPR EC50, nM (SEM, n), cAMP, 37° C., 0.1% bovine casein and 1.0% human serum albumin, geometric mean (SEM, n)",1.44 nM
same,EC50,"hGCGR; hGCGR EC50, nM (SEM, n), cAMP, 37° C., 0.1% bovine casein (no human serum albumin), geometric mean",> 9950 nM
same,EC50,"hGCGR; hGCGR EC50, nM (SEM, n), cAMP, 37° C., 0.1% bovine casein and 1.0% human serum albumin, geometric mean (SEM, n)",> 9950 nM
CCCCCCCCCCCC(=O)N[C@@H](CCC(=O)NCCOCCOCC(=O)NCCOCCOCC(=O)NCCOCCOCC(=O)NCCCC[C@H](NC(=O)[C@H](CO)NC(=O)[C@@H]1CCCN1C(=O)[C@@H]1CCCN1C(=O)[C@@H]1CCCN1C(=O)[C@H](C)NC(=O)CNC(=O)[C@H](CO)NC(=O)[C@H](CO)NC(=O)[C@@H]1CCCN1C(=O)CNC(=O)CNC(=O)[C@H](CCC(=O)O)NC(=O)[C@@H](NC(=O)[C@H](CC(C)C)NC(=O)[C@](C)(Cc1ccc(O)cc1)NC(=O)[C@@H](CCC(=O)O)NC(=O)[C@@H](NC(=O)[C@H](Cc1ccccc1)NC(=O)[C@H](CCCN)NC(=O)C(C)(C)NC(=O)[C@H](CCC(N)=O)NC(=O)[C@H](C)NC(=O)[C@H](CCCCNC(=O)COCCOCCNC(=O)COCCOCCNC(=O)COCCOCCNC(=O)CC[C@H](NC(=O)CCCCCCCCCCC)C(=O)O)NC(=O)[C@H](CCCN)NC(=O)[C@H](CC(=O)O)NC(=O)[C@H](CC(C)C)NC(=O)[C@](C)(CC(C)C)NC(=O)[C@@H](NC(=O)C(C)(C)NC(=O)[C@H](Cc1ccncc1)NC(=O)[C@H](CC(=O)O)NC(=O)[C@H](CO)NC(=O)[C@@H](NC(=O)[C@](C)(Cc1ccccc1F)NC(=O)[C@@H](NC(=O)CNC(=O)[C@H](CCC(=O)O)NC(=O)C(C)(C)NC(=O)[C@@H](N)Cc1ccc(O)cc1)[C@@H](C)O)[C@@H](C)O)[C@@H](C)CC)[C@@H](C)CC)[C@@H](C)CC)C(N)=O)C(=O)O [Example 435],Ki,[1]; [2],0.122 nM
same,Emax,"hGLP-1R; HEK293, cAMP, 37° C., 0.1% bovine casein and 1.0% human serum albumin, percent of maximal response to GLP-1(7-36)NH2, read-out: hGLP-1R Emax, % ± SEM",97.8%
same,Emax,"hGLP-1R; HEK293, cAMP, 37° C., 0.1% bovine casein, percent of maximal response to GLP-1(7-36)NH2, arithmetic mean, read-out: hGLP-1R Emax, % ± SEM",111%
same,EC50,"hGLP-1R; cAMP, 37° C., 0.1% bovine casein (no human serum albumin), read-out: hGLP-1R EC50, nM (SEM, n)",0.0527 nM
same,Emax,"hGIPR; HEK293, cAMP, 37° C., 0.1% bovine casein and 1.0% human serum albumin, percent of maximal response to GIP(1-42)NH2, read-out: hGIPR Emax, % ± SEM",98.7%
same,EC50,"hGIPR; cAMP, 37° C., 0.1% bovine casein (no human serum albumin), geometric mean, read-out: hGIPR EC50, nM (SEM, n)",0.00517 nM
same,EC50,"hGCGR; cAMP, 37° C., 0.1% bovine casein (no human serum albumin), geometric mean, read-out: hGCGR EC50, nM (SEM, n)",> 9950 nM
same,EC50,"hGCGR; cAMP, 37° C., 0.1% bovine casein and 1.0% human serum albumin, geometric mean (SEM, n), read-out: hGCGR EC50, nM (SEM, n)",> 9950 nM
CCCCCCCCCCCCCCCC(=O)N[C@@H](CCC(=O)NCCOCCOCC(=O)NCCOCCOCC(=O)NCCCC[C@H](NC(=O)[C@H](CCCN)NC(=O)[C@H](CC(=O)O)NC(=O)[C@H](CC(C)C)NC(=O)[C@](C)(CC(C)C)NC(=O)[C@@H](NC(=O)[C@H](CO)NC(=O)[C@H](CCCCNC(=O)COCCOCCNC(=O)COCCOCCNC(=O)CC[C@H](NC(=O)CCCCCCCCCCCCCCC)C(=O)O)NC(=O)[C@H](CC(=O)O)NC(=O)[C@H](CO)NC(=O)[C@@H](NC(=O)[C@](C)(Cc1ccccc1F)NC(=O)[C@@H](NC(=O)CNC(=O)[C@H](CCC(=O)O)NC(=O)C(C)(C)NC(=O)[C@@H](N)Cc1ccc(O)cc1)[C@@H](C)O)[C@@H](C)O)[C@@H](C)CC)C(=O)N[C@@H](C)C(=O)N[C@@H](CCC(N)=O)C(=O)NC(C)(C)C(=O)N[C@@H](CCC(=O)O)C(=O)N[C@@H](Cc1ccccc1)C(=O)N[C@H](C(=O)N[C@H](CCC(=O)O)C(=O)N[C@@](C)(Cc1ccc(O)cc1)C(=O)N[C@@H](CC(C)C)C(=O)N[C@H](C(=O)N[C@@H](CCC(=O)O)C(=O)NCC(=O)NCC(=O)N1CCC[C@H]1C(=O)N[C@@H](CO)C(=O)N[C@@H](CO)C(=O)NCC(=O)N[C@@H](C)C(=O)N1CCC[C@H]1C(=O)N1CCC[C@H]1C(=O)N1CCC[C@H]1C(=O)N[C@@H](CO)C(N)=O)[C@@H](C)CC)[C@@H](C)CC)C(=O)O [Example 29],Ki,[1]; [2],0.412 nM
same,EC50,hGLP-1R; [3],0.876 nM
same,Emax,"hGLP-1R; HEK293, percent of maximal response to GLP-1(7-36)NH2, 37° C., 0.1% bovine casein, arithmetic mean, read-out: hGLP-1R Emax, % ± SEM",100 ± 6.65%
same,EC50,hGIPR; [4],0.472 nM
same,Emax,hGIPR; [5],96.9 ± 5.32%
same,EC50,hGCGR; [6],> 9950 nM
same,EC50,hGCGR; [7],> 9950 nM
CC[C@H](C)[C@H](NC(=O)[C@H](CC(C)C)NC(=O)[C@](C)(Cc1ccc(O)cc1)NC(=O)[C@@H](CCC(=O)O)NC(=O)[C@@H](NC(=O)[C@H](Cc1ccccc1)NC(=O)[C@H](CCC(=O)O)NC(=O)C(C)(C)NC(=O)[C@H](CCC(N)=O)NC(=O)[C@H](C)NC(=O)[C@H](CCCCNC(=O)COCCOCCNC(=O)COCCOCCNC(=O)[C@@H](N)CCCCNC(=O)CCCCCCCCCCCCC(=O)O)NC(=O)[C@H](CCCN)NC(=O)[C@H](CC(=O)O)NC(=O)[C@H](CC(C)C)NC(=O)[C@](C)(CC(C)C)NC(=O)[C@@H](NC(=O)[C@H](CO)NC(=O)[C@H](Cc1ccncc1)NC(=O)[C@H](CC(=O)O)NC(=O)[C@H](CO)NC(=O)[C@@H](NC(=O)[C@](C)(Cc1ccccc1F)NC(=O)[C@@H](NC(=O)CNC(=O)[C@H](CCC(=O)O)NC(=O)C(C)(C)NC(=O)[C@@H](N)Cc1ccc(O)cc1)[C@@H](C)O)[C@@H](C)O)[C@@H](C)CC)[C@@H](C)CC)C(=O)N[C@@H](CCC(=O)O)C(=O)NCC(=O)NCC(=O)N[C@@H](CCCCNC(=O)COCCOCCNC(=O)COCCOCCNC(=O)[C@@H](N)CCCCNC(=O)CCCCCCCCCCCCC(=O)O)C(=O)N[C@@H](CO)C(=O)N[C@@H](CO)C(=O)NCC(=O)N[C@@H](C)C(=O)N1CCC[C@H]1C(=O)N1CCC[C@H]1C(=O)N1CCC[C@H]1C(=O)N[C@@H](CO)C(N)=O [Example 33],Ki,[1]; [2],1.34 nM
same,EC50,hGLP-1R; [3],4.35 nM
same,EC50,hGIPR; [4],0.0941 nM
same,Emax,hGIPR; [5],92 ± 1.02%
same,Emax,"hGIPR; HEK293, percent of maximal response to GIP(1-42)NH2, 37° C., 0.1% bovine casein, arithmetic mean, read-out: hGIPR Emax, % ± SEM",97.6 ± 2.45%
same,EC50,hGCGR; [6],> 9950 nM
same,EC50,hGCGR; [7],> 9950 nM

# — patent US20230265151A1, “GIP/GLP1 CO-AGONIST COMPOUNDS” (priority 2020, published 2023)
